{"source": "patent US10087139B2", "about": "“3-Phenylisoserine derivative production method” (Toray Fine CHhemicals Co., Ltd., priority 2015, dated 2018)", "key": {"[1]": {"experiment": "Solubility of N-protected-3-phenylisoserine in the extraction solvents", "type": "physicochemical", "settings": "solvent 1,2-dimethoxyethane"}, "[2]": {"experiment": "Solubility of N-protected-3-phenylisoserine in the extraction solvents", "type": "physicochemical", "procedure": "(§1) The same operation as in Example 1 was carried out except that toluene was used instead of tetrahydrofuran as the extraction solvent in the extraction step of Example 1. As a result, (2R,3S)—N-benzoyl-3-phenylisoserine as an intermediate could be hardly extracted into the organic layer. To evaluate the performance of the extraction solvent, solubility of (2R,3S)—N-benzoyl-3-phenylisoserine was investigated for comparison.\nas §1, with “cyclopentyl methyl ether” for “toluene”\nas §1, with “methyl-tert-butyl ether” for “toluene”\nas §1, with “acetonitrile” for “toluene”"}, "[3]": {"settings": "solvent cyclopentyl methyl ether"}, "[4]": {"settings": "solvent methyl-tert-butyl ether"}}, "data": [{"molecule": "O=C(N[C@@H](c1ccccc1)[C@@H](O)C(=O)O)c1ccccc1", "note": "[(2R,3S)—N-benzoyl-3-phenylisoserine]", "values": [{"measurement": "Solubility (20° C.)", "setting": "[1]; 20° C.", "value": 12.7, "unit": "wt %"}, {"measurement": "Solubility (40° C.)", "setting": "[1]; 40° C.", "value": 13.6, "unit": "wt %"}, {"measurement": "Solubility (20° C.)", "setting": "[2]; solvent acetonitrile", "value": 2.2, "unit": "wt %"}, {"measurement": "Solubility (40° C.)", "setting": "[2]; solvent acetonitrile", "value": 2.9, "unit": "wt %"}, {"measurement": "Solubility (20° C.)", "setting": "[2]; [3]", "value": 0.4, "unit": "wt %"}, {"measurement": "Solubility (40° C.)", "setting": "[2]; [3]", "value": 0.4, "unit": "wt %"}, {"measurement": "Solubility (20° C.)", "setting": "[2]; [4]", "value": 0.2, "unit": "wt %"}, {"measurement": "Solubility (40° C.)", "setting": "[2]; [4]", "value": 0.4, "unit": "wt %"}, {"measurement": "Solubility (20° C.)", "setting": "[2]; solvent tetrahydrofuran", "value": 9.2, "unit": "wt %"}, {"measurement": "Solubility (40° C.)", "setting": "[2]; solvent tetrahydrofuran", "value": 11.6, "unit": "wt %"}, {"measurement": "Solubility (20° C.)", "setting": "[2]; solvent toluene", "value": "<0.1", "unit": "wt %"}, {"measurement": "Solubility (40° C.)", "setting": "[2]; solvent toluene", "value": "<0.1", "unit": "wt %"}]}, {"molecule": "COC(=O)[C@H](O)[C@@H](NC(=O)c1ccccc1)c1ccccc1", "note": "[Example 1, (2R,3S)—N-benzoyl-3-phenylisoserine methyl ester]", "values": [{"measurement": "melting point", "value": "183 to 185", "unit": "°C"}]}, {"molecule": "COC(=O)[C@H](O)[C@@H](NC(=O)OC(C)(C)C)c1ccccc1", "note": "[Example 2, (2R,3S)—N-tert-butoxycarbonyl-3-phenylisoserine methyl ester]", "values": [{"measurement": "melting point", "value": "131 to 133", "unit": "°C"}]}, {"molecule": "CC(C)(C)OC(=O)NC(c1ccccc1)C(O)C(=O)O", "note": "(stereo not shown) [N-tert-butoxycarbonyl-3-phenylisoserine]", "values": [{"measurement": "Solubility (20° C.)", "setting": "[2]; solvent tetrahydrofuran", "value": 10.1, "unit": "wt %"}, {"measurement": "Solubility (40° C.)", "setting": "[2]; solvent tetrahydrofuran", "value": 12.2, "unit": "wt %"}]}]}
